Laboratory results published in patent publication US6849598B1, “Therapeutic compositions comprising bactericidal/permeability-increasing (BPI) protein products” (XOMA, priority 1995, dated 2005).
Values after ≈ are worked out from the molar mass of the structure shown. Like-named read-outs stand apart in the source and are kept apart here.

Assays:
E. faecium = test: Antibiotic susceptibility (MIC, Sensititre Trays) with rBPI21 poloxamer formulations; type: cell-based; conditions: for MIC: Enterococcus faecium, read-out: Minimum Inhibitory Concentration
Procedure: The effect of therapeutic compositions of rBPI21 formulated with poloxamer, with or without EDTA, was evaluated on the antibiotic susceptibility of the multiple drug resistant A. baumannii, S. pneumoniae, E. faecium and P. aeruginosa organisms of Example 5. Therapeutic compositions were prepared containing 2 mg/mL rBPI21, (5 mM sodium citrate, 150 mM NaCl) with a 0.2% (w/v) concentration of PLURONIC F68, P103, P104, P105 or P123. The effect on the antibiotic susceptibility of the organisms was determined in Mueller-Hinton Broth plus Cations (CSMHB, Remel), or 40% pooled human serum in CSMHB (Sigma, St. Louis, Mo.), as follows.
Isolated colonies of the organism from overnight cultures were suspended in Microscan® Inoculum Water to a concentration equivalent to a 0.5 McFarland Standard (approximately 1×10^8 CFU/ml), determined using a Microscan® turbidimeter. Aliquots were transferred to either CSMHB or 40% pooled human serum in CSMHB. Each tube contained either a final concentration of 16 μg/mL rBPI21 or an equivalent volume of control buffer. Minimal inhibitory concentrations (MIC) for each antibiotic tested, i.e. the lowest concentration of antibiotic which inhibits visible growth, were determined using gram-negative (MB and MC) and gram-positive (MA) Sensititre Trays (Radiometer America, Westlake, Ohio), which allow for the rapid and simultaneous survey of a broad spectrum of standard antibiotics. Any other antimicrobial panel systems known in the art, such as the Microscan® (Dade Microscan, Sacramento, Calif.), Pasco (DIFCO, Detroit, Mich.) and Alamar (Alamar, Sacramento, Calif.) systems, may alternatively be used to assay for antibiotic susceptibility.
Tables 12-15 below display a summary of the results of the antibiotic screening panels, reported for each strain tested as the MIC of the tested antibiotics in the presence of the indicated rBPI21 therapeutic composition. The antibiotic susceptibility standards (interpretation of an MIC as clinically resistant (R), intermediate (I) or susceptible (S) according to NCCLS standards) applicable to the organism tested appear in superscript next to the MIC.

[1] = system: P. aeruginosa (ATCC 19660); test: Antibiotic susceptibility (MIC, Microscan® MIC Plus Type 2 panel) with rBPI21/P123 and EDTA; type: cell-based; set-up: key to susceptibility interpretation of MIC (superscript): R: resistant; I: intermediate; S: susceptible
Procedure: In additional experiments, a BPI protein product, rBPI21, was formulated with an anti-bacterial activity enhancing poloxamer, specifically PLURONIC P123, and with various concentrations of EDTA, and was evaluated for its effect on the antibiotic susceptibility of a Pseudomonas aeruginosa (ATCC 19660). Antibiotic susceptibility was determined using Microscan® panel plates (Dade Microscan, West Sacramento, Calif.) that allow simultaneous determination of minimum inhibitory concentrations for a number of different antibiotics.
The antimicrobial susceptibility tests performed on the Microscan® panel plates are miniaturizations of the broth dilution susceptibility test. Antimicrobial agents are serially diluted in Mueller-Hinton broth (supplemented with calcium and magnesium, or with sodium chloride for oxacillin, or with thymidine phosphorylase for trimethoprim, sulfamethoxazole and trimethoprim/ sulfamethoxazole) to concentrations bridging the range of clinical interest. One well on the 96-well Microscan® plate is a growth control well that contains dehydrated broth only. The remaining wells contain dehydrated broth and antibiotic (or broth and biochemical reagent indicator), which is rehydrated to the desired concentration by inoculation of a standardized suspension of test organism. The chromogenic biochemical agent indicators are used to identify and characterize the species of bacteria based on detection of pH changes and substrate utilization. […] Gram-negative and gram positive organisms may be tested using any of the Microscan® panel plates (Microscan®, Dade Microscan, West Sacramento, Calif.). In these experiments with P. aeruginosa, the MIC Plus Type 2 panel plates were used. The concentrations of antibiotics tested in this panel plate are shown below in Table 16. The antibiotic susceptibility standards (interpretation of an MIC as resistant, intermediate or susceptible according to Microscan®'s NCCLS-derived standards) applicable to the gram-negative organisms that may be tested in each panel plate appear below in Table 16A.
For these experiments with P. aeruginosa, the following procedure was performed: The organism was streaked onto TSA plates (Remel, Lenexa, Kans.) and incubated for 18-24 hours overnight. Well-isolated A, colonies from the plates were emulsified in 3 ml of sterile Inoculum Water d(catalog no. B1015-2, MicrosScan® system, Dade Microscan, West Sacramento, Calif.) to a final turbidity equivalent to 0.5 McFarland Barium Sulfate standard. This cell suspension was vortexed for 2 to 3 seconds and 100 μl was transferred to glass tubes containing 25 ml of Inoculum Water with Pluronic-D (catalog no. B1015-7, MicroScan® system, Dade Microscan, West Sacramento, Calif.) (hereinafter “Pluronic Inoculum Water”), or 25 ml of Pluronic Inoculum Water into which rBPI21 in 0.2% PLURONIC P123, 0.002% TWEEN 80, 5mM sodium citrate, 150 mM NaCl (“rBPI21/P123”) had been diluted to 64 μg/ml rBPI21.
The 25 ml of this inoculum containing rBPI21 was mixed by inversion and poured into a tray. The inoculum was drawn up into a manual 96-well pipetting system (RENOK^− rehydrator-inoculator system, Dade Microscan, West Sacramento, Calif.) designed for use with the Microscan® panel plates, and 110 μl of the inoculum was delivered to each well of a Microscan® MIC Plus Type 2 panel plate. When added to the wells, this inoculum achieves a final bacterial concentration of 4×10^5 to 7×10^5 CFU/ml. The panel plates were then incubated at 35° C. for 15-24 hours and read visually for cell growth.
No growth was defined as a slight whiteness in the well or a clear broth. Growth appeared as turbidity which could take the form of a white haze throughout the well, a white button in the center of the well, or a fine granule growth throughout the well. All wells were read against a black indirectly lighted background. Visual results of the biochemical reactions were read into a database for bacterial identification.

[2] = CSMHB, 16 μg/mL rBPI21 with F68
[3] = CSMHB, 16 μg/mL rBPI21 with P103
[4] = CSMHB, 16 μg/mL rBPI21 with P104
[5] = CSMHB, 16 μg/mL rBPI21 with P105
[6] = CSMHB, 16 μg/mL rBPI21 with P123
[7] = Serum, 16 μg/mL rBPI21 with F68
[8] = Serum, 16 μg/mL rBPI21 with P103
[9] = Serum, 16 μg/mL rBPI21 with P104
[10] = Serum, 16 μg/mL rBPI21 with P105
[11] = Serum, 16 μg/mL rBPI21 with P123
[12] = rBPI21/P123 at 64 μg/ml rBPI21, With 0% EDTA
[13] = rBPI21/P123 at 64 μg/ml rBPI21, With 0.01% EDTA
[14] = rBPI21/P123 at 64 μg/ml rBPI21, With 0.05% EDTA
[15] = rBPI21/P123 at 64 μg/ml rBPI21, With 0.1% EDTA

Row | Compound | susceptibility interpretation of MIC (superscript) (E. faecium; [2]) | susceptibility interpretation of MIC (superscript) (E. faecium; [3]) | susceptibility interpretation of MIC (superscript) (E. faecium; [4]) | susceptibility interpretation of MIC (superscript) (E. faecium; [5]) | susceptibility interpretation of MIC (superscript) (E. faecium; [6]) | susceptibility interpretation of MIC (superscript) (E. faecium; CSMHB, Control (no BPI)) | MIC (E. faecium; [2]) [µg/mL] | MIC (E. faecium; [3]) [µg/mL] | MIC (E. faecium; [4]) [µg/mL] | MIC (E. faecium; [5]) [µg/mL] | MIC (E. faecium; [6]) [µg/mL] | MIC (E. faecium; CSMHB, Control (no BPI)) [µg/mL] | susceptibility interpretation of MIC (superscript) (E. faecium; [7]) | susceptibility interpretation of MIC (superscript) (E. faecium; [8]) | susceptibility interpretation of MIC (superscript) (E. faecium; [9]) | susceptibility interpretation of MIC (superscript) (E. faecium; [10]) | susceptibility interpretation of MIC (superscript) (E. faecium; [11]) | susceptibility interpretation of MIC (superscript) (E. faecium; Serum, Control (no BPI)) | other results
1 | CO[C@H]1/C=C/O[C@@]2(C)Oc3c(C)c(O)c4c(O)c(c(/C=N/N5CCN(C)CC5)c(O)c4c3C2=O)NC(=O)/C(C)=C\C=C\[C@H](C)[C@H](O)[C@@H](C)[C@@H](O)[C@@H](C)[C@H](OC(C)=O)[C@@H]1C [Rifampicin] | S | S | S | S | S | R | 0.5 (≈ 0.608 µM) | 0.5 (≈ 0.608 µM) | 0.5 (≈ 0.608 µM) | 0.5 (≈ 0.608 µM) | 0.5 (≈ 0.608 µM) | 4 (≈ 4.86 µM) | S | S | R | S | S | R | MIC (E. faecium; [7]): 1 µg/mL (≈ 1.22 µM); MIC (E. faecium; [8]): 1 µg/mL (≈ 1.22 µM); MIC (E. faecium; [9]): > 4 µg/mL; MIC (E. faecium; [10]): 0.5 µg/mL (≈ 0.608 µM); MIC (E. faecium; [11]): 0.5 µg/mL (≈ 0.608 µM); MIC (E. faecium; Serum, Control (no BPI)): 4 µg/mL (≈ 4.86 µM)
2 | O=C(O)c1cn(C2CC2)c2cc(N3CCNCC3)c(F)cc2c1=O [Ciprofloxacin] | S | S | S | S | S | I | 1 (≈ 3.02 µM) | < 0.5 | 1 (≈ 3.02 µM) | 1 (≈ 3.02 µM) | 1 (≈ 3.02 µM) | 2 (≈ 6.04 µM) | S | I | I | I | I | I | Minimum Inhibitory Concentration of Antibiotic ([1]; Control (No BPI21)): < 0.25 µg/mL; susceptibility interpretation of MIC (superscript) ([1]; Control (No BPI21)): S; Minimum Inhibitory Concentration of Antibiotic [1, 12]: < 0.25 µg/mL; susceptibility interpretation of MIC (superscript) [1, 12]: S; Minimum Inhibitory Concentration of Antibiotic [1, 13]: < 0.25 µg/mL; susceptibility interpretation of MIC (superscript) [1, 13]: S; Minimum Inhibitory Concentration of Antibiotic [1, 14]: < 0.25 µg/mL; susceptibility interpretation of MIC (superscript) [1, 14]: S; Minimum Inhibitory Concentration of Antibiotic [1, 15]: < 0.25 µg/mL; susceptibility interpretation of MIC (superscript) [1, 15]: S
